This note sets out measurements from US20250282819A1, “MITOCHONDRIA-[…] PEPTIDE THAT CAN BE […] DELIVERED AT NANOMOLAR CONCENTRATION, AND USE THEREOF” (CAMP THERAPEUTICS INC., priority 2021, published 2025).

Data set [1] is described as follows: Oligomerization tendency by HPLC retention time at 40 and 5° C. The data set is classed as physicochemical. Conditions: 10 μl of 0.2 mM peptide. Here is the method: Specifically, 10 μl of each peptide solution at 0.2 mM was injected into HPLC, and the time at which the peptide was detected (RT) was measured at 40° C. and 5° C., respectively. Here, the stationary phase and mobile phase conditions of the HPLC were set using well-known methods. In general, the better the oligomer is formed, the detection time becomes longer at 40° C., which is a relatively higher temperature, thereby resulting in larger ΔΔRT that is a difference from the value measured at 5° C.

Data set [2] is described as follows: Cytotoxicity by WST-1 assay. The data set is classed as cell-based. The settings on record: human, HeLa cells, one day, read-out: concentration at which 50% of the cultured cells were killed. Here is the method: The cytotoxicity was measured by WST-1 assay. Specifically, 1×10^4 HeLa cells were seeded into 96-well plates. After 24 hours, the cells were treated with different concentrations of CMP3013 peptide indicated in FIG. 12 and incubated for one day. At the end of the incubation, the culture medium was replaced with new culture medium, treatment with EZ-Cytox (DoGEN, South Korea) at 10 μL was performed per well, and incubation was performed for 30 minutes. Then, the absorbance was measured at 450 nm. As a result, it was identified that the cytotoxicity of CMP3013 was only observed at micromolar or higher levels, and the concentration, at which 50% of the cultured cells were killed, reached 10 micromolar (FIG. 12).

In the next data set the test system is HeLa cells. The data set is described as follows: Cristae protecting ability by TEM. The format is cell-based. Conditions: 50 or 100 nM 2 hours, then 0.5 mM H2O2 2 hours. The text has this: In order to determine the mode of action of the peptide according to the disclosure, attenuation of cristae number in mitochondria was examined in relation to impaired mitochondrial function caused by H2O2 treatment. In other words, it was investigated whether promotion of normal mitochondrial function caused by CMP3013 was related to preservation of cristae structure. To evaluate this protective effect, transmission electron microscopy (TEM) images were used to observe changes in the shape and number of cristae in damaged HeLa cells in the presence or absence of CMP3013.
1.8×10^6 HeLa cells were fixed with modified Karnovsky fixative [2% paraformaldehyde and 2% glutaraldehyde dissolved in […]] at 4° C. for 3 hours. A sample was washed three times with […] sodium cacodylate buffer (pH 7.2) at 4° C. for 10 minutes, and then post-fixed at 4° C. for 2 hours with 1% osmium tetroxide dissolved in […] sodium cacodylate buffer (pH 7.2). The sample was then washed twice briefly with distilled water. Subsequently, the sample was then en bloc stained with 0.5% uranyl acetate at 4° C. overnight. […]

Data set [3] in a line: Cardiolipin binding assay, NBD fluorescence with liposomes. Here is the method: To further validate specificity of CMP3013 for cardiolipin-rich membranes identified in Example 9, two model systems mimicking the inner mitochondrial membrane were constructed using POPC (1-palmitoyl-2-oleoyl-sn-glycero-3-phosphocholine) and POPE (1-palmitoyl-2-oleoyl-sn-glycero-3-phosphoethanolamine), and cardiolipin binding assays were performed using an NBD-labeled CMP3013 monomer (NBD-CMP3013m), according to the method described in Experimental Example 12.
For the association experiments, 1 μM of NBD-labeled peptide dissolved in PBS was prepared in a black 96-well plate. Liposome (POPC:POPE=2:1 or POPC:POPE=2:1, containing 10% cardiolipin) was added to the peptide until the desired concentration was achieved. The mixture of NBD-peptide and liposome was mixed well through pipetting, and then fluorescence emission of the sample was monitored (λex=467 nm, λem=536 nm).
For the association experiments depending on cardiolipin ratio, 1 μM of NBD-labeled peptide or C6-NBD dissolved in PBS was prepared in a black 96-well plate. Liposome (POPC:POPE=2:1, containing 0 to 20% cardiolipin) was added to the peptide until the desired concentration (5 μM) was achieved. This mixture was mixed well through pipetting and fluorescence emission of the sample was monitored (λex=467 nm, λem=536 nm).
For dissociation experiments, 1 μM of NBD-labeled peptide dissolved in PBS was prepared in a black 96-well plate. Liposome (POPC:POPE=2:1 or POPC:POPE=2:1, containing 10% cardiolipin) was added to the peptide until the desired concentration (100 μM) was achieved. The mixture of NBD-peptide and liposome was mixed well through pipetting and fluorescence intensity of the mixture was measured (λex=467 nm, λem=536 nm). The unlabeled peptide (acetylated peptide) was then added to the mixture and mixed well through pipetting. Incubation in the dark was performed for 10 minutes, and then changes in fluorescence intensity were monitored. Peptide addition and fluorescence measurement were repeated until the concentration of acetylated peptide reached 40 μM.

Structures are written as SMILES. Where a SMILES comes first, the peptide text is derived from it.

As for `CC(=O)N[C@@H](CC1CCCCC1)C(=O)N[C@H]1CSSC[C@@H](C(=O)N[C@@H](CCCNC(=N)N)C(N)=O)NC(=O)[C@H](CC2CCCCC2)NC(=O)[C@H](CCCNC(=N)N)NC(=O)[C@H](CCCNC(=N)N)NC(=O)[C@H](CC2CCCCC2)NC(=O)[C@H](CC(C)C)NC(=O)[C@H](CCCNC(=N)N)NC(=O)[C@@H](NC(=O)[C@H](CC2CCCCC2)NC(C)=O)CSSC[C@@H](C(=O)N[C@@H](CCCNC(=N)N)C(N)=O)NC(=O)[C@H](CC2CCCCC2)NC(=O)[C@H](CCCNC(=N)N)NC(=O)[C@H](CCCNC(=N)N)NC(=O)[C@H](CC2CCCCC2)NC(=O)[C@H](CC(C)C)NC(=O)[C@H](CCCNC(=N)N)NC1=O` [CMP3013] (HELM PEPTIDE1{[ac].[Cha].C.R.L.[Cha].R.R.[Cha].C.R.[am]}|PEPTIDE2{[ac].[Cha].C.R.L.[Cha].R.R.[Cha].C.R.[am]}$PEPTIDE1,PEPTIDE2,3:R3-10:R3|PEPTIDE1,PEPTIDE2,10:R3-3:R3$$$V2.0), the “Oligomerization tendency (RT at 40-5° C.) ΔΔRT” value in data set [1] is on record as 2.683 min. Also, the CC50 at 24 h in data set [2] is 10 µM. Also, the “number of cristae structures (TEM)” value in the data set on HeLa cells was “same number of normal cristae structures as in the control group with no treatment”. Besides, in data set [3], the “stronger binding capacity for cardiolipin than SS-31” value is on record as “approximately 100 fold”.
